Measurements reported in PubChem BioAssay AID256 (DTP/NCI, 2004).
Where “and” joins values, the source holds several entries; their conditions need not be identical. Identical values can stand only once. Toxic doses and inconclusive results are not listed.

System: CD2F1 mice, L1210 leukemia ip, survival T/C
Assay: NCI In Vivo Anticancer Drug Screen. Data for tumor model L1210 Leukemia (intraperitoneal) in CD2F1 (CDF1) mice
Details: higher = longer survival
Method in brief: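 Ratio T/C, where T is the treated-group value and C the vehicle-dosed control value, from mice implanted with a transplantable tumor.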

[1] = endpoint: mean survival time, dose: 100.0 mg/kg/injection, schedule: Q04DX003 (ip), vehicle: saline with Tween-80
[2] = endpoint: mean survival time, dose: 200.0 mg/kg/injection, schedule: Q04DX003 (ip), vehicle: saline with Tween-80
[3] = endpoint: mean survival time, dose: 400.0 mg/kg/injection, schedule: Q04DX003 (ip), vehicle: saline with Tween-80
[4] = endpoint: mean survival time, dose: 100.0 mg/kg/injection, schedule: Q01DX009 (ip), vehicle: saline with Tween-80
[5] = endpoint: mean survival time, dose: 200.0 mg/kg/injection, schedule: Q01DX009 (ip), vehicle: saline with Tween-80
[6] = endpoint: mean survival time, dose: 100.0 mg/kg/injection, schedule: Q01DX001 (ip), vehicle: saline with Tween-80
[7] = endpoint: mean survival time, dose: 100.0 mg/kg/injection, schedule: Q04DX003 (ip), vehicle: saline
[8] = endpoint: mean survival time, dose: 200.0 mg/kg/injection, schedule: Q04DX003 (ip), vehicle: saline
[9] = endpoint: mean survival time, dose: 400.0 mg/kg/injection, schedule: Q04DX003 (ip), vehicle: saline

Cc1ccc(S(=O)(=O)OC2CCCCCCCCCCC2=O)cc1 (stereo not drawn)
T/C (endpoint: mean survival time, dose: 50.0 mg/kg/injection, schedule: Q04DX003 (ip), vehicle: other): 97 % of control
T/C (endpoint: mean survival time, dose: 100.0 mg/kg/injection, schedule: Q04DX003 (ip), vehicle: other): 93 % of control and 95 % of control
T/C (endpoint: mean survival time, dose: 200.0 mg/kg/injection, schedule: Q04DX003 (ip), vehicle: other): 93 % of control
T/C (endpoint: mean survival time, dose: 400.0 mg/kg/injection, schedule: Q04DX003 (ip), vehicle: other): 95 % of control

CCN(CC)Cc1cc(Nc2ncnc3scc(C)c23)ccc1O
T/C [1]: 100 % of control
T/C [2]: 97 % of control
T/C [3]: 100 % of control

Cc1cc(Cl)ccc1NC(=O)Nc1ccccc1C(N)=O
T/C (endpoint: mean survival time, dose: 50.0 mg/kg/injection, schedule: Q01DX009 (ip), vehicle: saline with Tween-80): 95 % of control
T/C [4]: 95 % of control
T/C [5]: 91 % of control

CC(C)(C)CC(C)(C)c1ccc(OCCOc2ccccc2NS(=O)(=O)c2ccc(N)cc2)cc1
T/C (endpoint: mean survival time, dose: 100.0 mg/kg/injection, schedule: Q01DX001 (ip), vehicle: Klucel (hydroxypropylcellulose) (HPC)): 98 % of control
T/C (endpoint: mean survival time, dose: 200.0 mg/kg/injection, schedule: Q01DX001 (ip), vehicle: Klucel (hydroxypropylcellulose) (HPC)): 96 % of control

CN1CCCC1CCNc1nc(Nc2ccc(Cl)c(Cl)c2)nc2ccc(Cl)cc12 (stereo not drawn)
T/C (endpoint: mean survival time, dose: 25.0 mg/kg/injection, schedule: Q01DX009 (ip), vehicle: saline with Tween-80): 97 % of control
T/C [6]: 103 % of control

S=C=NCc1cccc(CN=C=S)c1
T/C (endpoint: mean survival time, dose: 1.5 mg/kg/injection, schedule: Q01DX009 (ip), vehicle: saline with Tween-80): 98 % of control
T/C (endpoint: mean survival time, dose: 3.0 mg/kg/injection, schedule: Q01DX009 (ip), vehicle: saline with Tween-80): 101 % of control
T/C (endpoint: mean survival time, dose: 6.25 mg/kg/injection, schedule: Q04DX003 (ip), vehicle: saline): 101 % of control
T/C (endpoint: mean survival time, dose: 12.5 mg/kg/injection, schedule: Q04DX003 (ip), vehicle: saline): 103 % of control
T/C (endpoint: mean survival time, dose: 25.0 mg/kg/injection, schedule: Q04DX003 (ip), vehicle: saline): 101 % of control

CN(C)C1C(=O)C(C(=O)NP(=O)(NCCCO)N(CCCl)CCCl)=C(O)C2(O)C(=O)C3=C(O)c4c(O)cccc4C(C)(O)C3CC12 (stereo not drawn)
T/C (endpoint: mean survival time, dose: 1.56 mg/kg/injection, schedule: Q01DX001 (ip), vehicle: saline with Tween-80): 102 % of control
T/C (endpoint: mean survival time, dose: 3.12 mg/kg/injection, schedule: Q01DX001 (ip), vehicle: saline with Tween-80): 96 % of control
T/C (endpoint: mean survival time, dose: 15.62 mg/kg/injection, schedule: Q01DX001 (ip), vehicle: saline with Tween-80): 104 % of control
T/C (endpoint: mean survival time, dose: 31.25 mg/kg/injection, schedule: Q01DX001 (ip), vehicle: saline with Tween-80): 100 % of control
T/C (endpoint: mean survival time, dose: 62.5 mg/kg/injection, schedule: Q01DX001 (ip), vehicle: saline with Tween-80): 100 % of control and 106 % of control
T/C (endpoint: mean survival time, dose: 125.0 mg/kg/injection, schedule: Q01DX001 (ip), vehicle: saline with Tween-80): 124 % of control and 100 % of control
T/C (endpoint: mean survival time, dose: 250.0 mg/kg/injection, schedule: Q01DX001 (ip), vehicle: saline with Tween-80): 122 % of control and 110 % of control
T/C (endpoint: mean survival time, dose: 500.0 mg/kg/injection, schedule: Q01DX001 (ip), vehicle: saline with Tween-80): 156 % of control
T/C (endpoint: median survival time, dose: 25.0 mg/kg/injection, schedule: Q01DX009 (ip), vehicle: saline with Tween-80): 110 % of control
T/C (endpoint: median survival time, dose: 50.0 mg/kg/injection, schedule: Q01DX009 (ip), vehicle: saline with Tween-80): 118 % of control
T/C (endpoint: median survival time, dose: 100.0 mg/kg/injection, schedule: Q01DX009 (ip), vehicle: saline with Tween-80): 157 % of control
T/C (endpoint: median survival time, dose: 200.0 mg/kg/injection, schedule: Q01DX009 (ip), vehicle: saline with Tween-80): 201 % of control and 202 % of control
T/C (endpoint: median survival time, dose: 400.0 mg/kg/injection, schedule: Q01DX009 (ip), vehicle: saline with Tween-80): 116 % of control

CC(=O)CC(=O)N1CCN(C(=O)CC(C)=O)CC1
T/C [7]: 98 % of control
T/C [8]: 96 % of control
T/C [9]: 98 % of control

C(=C\CN1CCOCC1)/CN1CCOCC1
T/C (endpoint: mean survival time, dose: 100.0 mg/kg/injection, schedule: Q01DX009 (ip), vehicle: saline): 91 % of control
T/C (endpoint: mean survival time, dose: 200.0 mg/kg/injection, schedule: Q01DX009 (ip), vehicle: saline): 97 % of control
T/C (endpoint: mean survival time, dose: 400.0 mg/kg/injection, schedule: Q01DX009 (ip), vehicle: saline): 97 % of control

CSCCSC
T/C [6]: 104 % of control
T/C (endpoint: mean survival time, dose: 200.0 mg/kg/injection, schedule: Q01DX001 (ip), vehicle: saline with Tween-80): 98 % of control
T/C (endpoint: mean survival time, dose: 400.0 mg/kg/injection, schedule: Q01DX001 (ip), vehicle: saline with Tween-80): 96 % of control

COc1cccc(C(=O)c2ccncc2C(=O)O)c1OC
T/C (endpoint: mean survival time, dose: 12.5 mg/kg/injection, schedule: Q01DX009 (ip), vehicle: other): 110 % of control
T/C (endpoint: mean survival time, dose: 25.0 mg/kg/injection, schedule: Q01DX009 (ip), vehicle: other): 100 % of control
T/C (endpoint: mean survival time, dose: 50.0 mg/kg/injection, schedule: Q01DX009 (ip), vehicle: other): 93 % of control
T/C (endpoint: mean survival time, dose: 100.0 mg/kg/injection, schedule: Q01DX009 (ip), vehicle: other): 96 % of control
T/C (endpoint: mean survival time, dose: 200.0 mg/kg/injection, schedule: Q01DX009 (ip), vehicle: other): 96 % of control

O=C(O)/C=C\C(=O)Nc1ccccn1
T/C (endpoint: mean survival time, dose: 5.0 mg/kg/injection, schedule: Q01DX009 (ip), vehicle: saline): 94 % of control
T/C (endpoint: mean survival time, dose: 5.0 mg/kg/injection, schedule: Q04DX003 (ip), vehicle: saline): 105 % of control and 106 % of control
T/C (endpoint: mean survival time, dose: 10.0 mg/kg/injection, schedule: Q01DX009 (ip), vehicle: saline): 92 % of control
T/C (endpoint: mean survival time, dose: 10.0 mg/kg/injection, schedule: Q04DX003 (ip), vehicle: saline): 97 % of control and 105 % of control
T/C (endpoint: mean survival time, dose: 20.0 mg/kg/injection, schedule: Q04DX003 (ip), vehicle: saline): 97 % of control and 98 % of control
T/C (endpoint: mean survival time, dose: 30.0 mg/kg/injection, schedule: Q01DX009 (ip), vehicle: saline): 100 % of control
T/C (endpoint: mean survival time, dose: 60.0 mg/kg/injection, schedule: Q01DX009 (ip), vehicle: saline): 105 % of control

CCCN(CCC)CCC(=O)OCC
T/C [4]: 97 % of control
T/C [1]: 97 % of control
T/C [5]: 97 % of control
T/C [2]: 114 % of control
T/C (endpoint: mean survival time, dose: 400.0 mg/kg/injection, schedule: Q01DX009 (ip), vehicle: saline with Tween-80): 100 % of control
T/C [3]: 100 % of control

NNC(=O)CCCCC(=O)NN
T/C [7]: 97 % of control
T/C [8]: 100 % of control
T/C [9]: 99 % of control

CCCCOc1nc(-c2ccncc2)nc(N(C)C)n1
T/C (endpoint: mean survival time, dose: 16.0 mg/kg/injection, schedule: Q04DX002 (ip), vehicle: saline): 92 % of control
T/C (endpoint: mean survival time, dose: 31.0 mg/kg/injection, schedule: Q04DX002 (ip), vehicle: saline): 92 % of control
T/C (endpoint: mean survival time, dose: 63.0 mg/kg/injection, schedule: Q04DX002 (ip), vehicle: saline): 100 % of control
T/C (endpoint: mean survival time, dose: 100.0 mg/kg/injection, schedule: Q01DX002 (ip), vehicle: saline): 100 % of control

CC(C)(CNC1CCCCC1)OC(=O)c1ccc(N)cc1
T/C (endpoint: mean survival time, dose: 5.0 mg/kg/injection, schedule: Q01DX001 (ip), vehicle: saline): 102 % of control
T/C (endpoint: mean survival time, dose: 10.0 mg/kg/injection, schedule: Q01DX001 (ip), vehicle: saline): 96 % of control
T/C (endpoint: mean survival time, dose: 20.0 mg/kg/injection, schedule: Q01DX001 (ip), vehicle: saline): 98 % of control
T/C (endpoint: mean survival time, dose: 40.0 mg/kg/injection, schedule: Q01DX001 (ip), vehicle: saline): 104 % of control

COc1ccc2c(NCCCCCCCCNc3c4ccccc4nc4cc(OC)ccc34)c3ccccc3nc2c1
T/C (endpoint: mean survival time, dose: 0.47 mg/kg/injection, schedule: Q01DX009 (ip), vehicle: distilled water + alcohol): 116 % of control
T/C (endpoint: mean survival time, dose: 0.94 mg/kg/injection, schedule: Q01DX009 (ip), vehicle: distilled water + alcohol): 120 % of control and 112 % of control
T/C (endpoint: mean survival time, dose: 1.87 mg/kg/injection, schedule: Q01DX009 (ip), vehicle: distilled water + alcohol): 120 % of control
T/C (endpoint: mean survival time, dose: 1.88 mg/kg/injection, schedule: Q01DX009 (ip), vehicle: distilled water + alcohol): 113 % of control and 112 % of control
T/C (endpoint: median survival time, dose: 0.5 mg/kg/injection, schedule: Q01DX009 (ip), vehicle: distilled water + alcohol): 120 % of control
T/C (endpoint: median survival time, dose: 1.0 mg/kg/injection, schedule: Q01DX009 (ip), vehicle: distilled water + alcohol): 118 % of control
T/C (endpoint: median survival time, dose: 2.0 mg/kg/injection, schedule: Q01DX009 (ip), vehicle: distilled water + alcohol): 121 % of control
T/C (endpoint: median survival time, dose: 4.0 mg/kg/injection, schedule: Q01DX009 (ip), vehicle: distilled water + alcohol): 124 % of control
